Results on 16 molecules are retold here after ChEMBL document CHEMBL1135283, “Carbonic anhydrase activators: human isozyme II is strongly activated by oligopeptides incorporating the carboxyterminal sequence of the bicarbonate anion exchanger AE1” (Bioorg Med Chem Lett, 2002).

The target in assay [1] is Carbonic anhydrase 2 (Homo sapiens) (UniProt P00918). The assay is described as follows: Tested in vitro for activation of Human cloned isozyme carbonic anhydrase II (hCA II).
In assay [2] the target is T1, Carbonic anhydrase 4 (Bos taurus) (UniProt Q95323).
T1 sequence (whole entry): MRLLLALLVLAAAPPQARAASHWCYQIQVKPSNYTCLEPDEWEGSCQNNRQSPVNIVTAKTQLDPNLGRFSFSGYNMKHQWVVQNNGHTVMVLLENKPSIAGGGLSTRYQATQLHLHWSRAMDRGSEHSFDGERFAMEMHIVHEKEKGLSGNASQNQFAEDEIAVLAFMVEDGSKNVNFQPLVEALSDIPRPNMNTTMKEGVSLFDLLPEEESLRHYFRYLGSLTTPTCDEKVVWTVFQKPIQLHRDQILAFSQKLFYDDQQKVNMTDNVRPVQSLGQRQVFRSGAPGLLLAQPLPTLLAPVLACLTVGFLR
The assay is described as follows: Tested in vitro for activation of carbonic anhydrase IV (bCA IV), purified from bovine lung microsomes. Particulars: Microsome.

Assay [3] has as its target Carbonic anhydrase 1 (Homo sapiens) (UniProt P00915). The assay is described as follows: Tested in vitro for activation of Human cloned isozyme carbonic anhydrase I (hCA I).

Where a SMILES comes first, the peptide text is derived from it. The star is where a group is joined. Boc = CC(C)(C)OC(=O)* Some results are limits rather than exact numbers.

Sequence of Carbonic anhydrase 1 (Homo sapiens) (P00915 2-261 limits assumed): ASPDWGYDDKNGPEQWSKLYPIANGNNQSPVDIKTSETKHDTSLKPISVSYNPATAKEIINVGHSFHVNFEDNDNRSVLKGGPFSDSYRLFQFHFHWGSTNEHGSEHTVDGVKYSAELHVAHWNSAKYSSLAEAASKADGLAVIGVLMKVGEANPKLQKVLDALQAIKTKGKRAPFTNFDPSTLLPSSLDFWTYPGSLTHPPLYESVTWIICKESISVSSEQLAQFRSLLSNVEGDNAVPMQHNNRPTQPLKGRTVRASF

For `CC(C)(C)OC(=O)N[C@@H](CC(=O)O)C(=O)O`, the KA in assay [1], in assay [2] and in assay [3] was above 200 µM in each case.
With `C[C@H](N)C(=O)O`, the KA came out at 150 µM in assay [1], 66 µM in assay [2] and 54 µM in assay [3].
For `N[C@@H](CC(=O)O)C(=O)O`, the KA is 130 µM in assay [1], 60 µM in assay [2] and 48 µM in assay [3].
For the molecule `CC(=O)N[C@@H](CC(=O)O)C(=O)N[C@@H](C)C(=O)O` (Ac-Asp-Ala-OH), the KA in assay [1], in assay [2] and in assay [3] was above 200 µM throughout.
On to `CC(=O)N[C@@H](CC(=O)O)C(=O)N[C@@H](CC(=O)O)C(=O)O` (Ac-Asp-Asp-OH), for which the KA in assay [1], in assay [2] and in assay [3] was above 200 µM each time.
On to `CC(C)(C)OC(=O)N[C@@H](CC(=O)O)C(=O)N[C@@H](CC(=O)O)C(=O)N[C@@H](CC(=O)O)C(=O)O` (Boc-Asp-Asp-Asp-OH), for which the KA in assay [1] is 145 µM; in assay [2] it was above 200 µM; in assay [3] it was above 200 µM.
On to `CC(C)(C)OC(=O)N[C@@H](CC(=O)O)C(=O)N[C@@H](CC(=O)O)C(=O)O` (Boc-Asp-Asp-OH), for which the KA in assay [1], in assay [2] and in assay [3] was above 200 µM each time.
`C[C@H](NC(=O)[C@H](CC(=O)O)NC(=O)OC(C)(C)C)C(=O)N[C@@H](CC(=O)O)C(=O)N[C@@H](CC(=O)O)C(=O)O` (Boc-DADD-OH): the KA is 131 µM in assay [1], above 200 µM in assay [2] and above 200 µM in assay [3].
Turning to `CC(C)(C)OC(=O)N[C@@H](CC(=O)O)C(=O)N[C@@H](CC(=O)O)C(=O)N[C@@H](CC(=O)O)C(=O)N[C@@H](CC(=O)O)C(=O)O` (Boc-DDDD-OH), the figures for the KA in assay [1], in assay [2] and in assay [3] were 124 µM, above 200 µM and above 200 µM, respectively.
As for `C[C@H](N)C(=O)N[C@@H](C)C(=O)O` (H-Ala-Ala-OH), the KA in assay [1] is 110 µM; in assay [2], 62 µM; in assay [3] it was 50 µM.
As to `C[C@H](NC(=O)[C@@H](N)CC(=O)O)C(=O)N[C@@H](CC(=O)O)C(=O)O` (H-Asp-Ala-Asp-OH), the KA is 10 µM in assay [1], 48 µM in assay [2] and 38 µM in assay [3].
In the same order, the values of `C[C@H](NC(=O)[C@@H](N)CC(=O)O)C(=O)O` (H-Asp-Ala-OH) are 33 µM, 55 µM and 40 µM.
For `N[C@@H](CC(=O)O)C(=O)N[C@@H](CC(=O)O)C(=O)N[C@@H](CC(=O)O)C(=O)O` (H-Asp-Asp-Asp-OH), the KA in assay [1] was determined as 11 µM; in assay [2], 45 µM; in assay [3], 40 µM.
In the same order, the values of `N[C@@H](CC(=O)O)C(=O)N[C@@H](CC(=O)O)C(=O)O` (H-Asp-Asp-OH) are 21 µM, 51 µM and 39 µM.
Take `C[C@H](NC(=O)[C@@H](N)CC(=O)O)C(=O)N[C@@H](CC(=O)O)C(=O)N[C@@H](CC(=O)O)C(=O)O` (H-DADD-OH): the KA amounted to 0.2 µM in assay [1], 46 µM in assay [2] and 36 µM in assay [3].
For `N[C@@H](CC(=O)O)C(=O)N[C@@H](CC(=O)O)C(=O)N[C@@H](CC(=O)O)C(=O)N[C@@H](CC(=O)O)C(=O)O` (H-DDDD-OH) the same measures were 0.1 µM, 43 µM and 35 µM.
